{"source": "patent US20240041796A1", "about": "“ANTI-INFLAMMATORY COMPOSITION COMPRISING N-BENZYL-N-METHYLDECAN-1-AMINE OR A DERIVATIVE THEREOF AS AN ACTIVE INGREDIENT” (PUSAN NATIONAL UNIVERSITY INDUSTRY-UNIVERSITY COOPERATION …, priority 2022, published 2024)", "key": {"[1]": {"tested_on": "THP-1 cell line", "test": "LPS-induced signaling pathway in THP-1 cells pretreated with FMJ-G0 derivatives", "assay_type": "cell-based, human", "conditions": "pretreated 4 μM 1 hour, LPS 1 μg/mL 4 hours; FIG. 8B", "procedure": "Thereafter, the THP-1 cell line was pretreated with the synthesized FMJ-G0 derivatives FMJ-G1, FMJ-G2, and FMJ-G3 at a concentration of 4 μM for 1 hour. Lipopolysaccharide (1 μg/mL) was added to a culture medium in which the THP-1 cell line was cultured for 4 hours. The same cell line was collected, and a signaling pathway involved in inflammatory cytokine synthesis was identified, and the result is shown in FIG. 8B."}, "[2]": {"tested_on": "Balb/C mice", "test": "DNCB-induced atopic dermatitis model, cosmetic cream applied to the skin", "assay_type": "in vivo, mouse", "conditions": "for DNCB-induced atopic dermatitis (level of dermatitis): cosmetic cream (0.3% active; Lidomax ointment 0.15%) applied to the back for 2 weeks, FIG. 9A, 9C", "procedure": "Wed added 0.3 g of olive wax to 2 mL of soybean oil (Sigma-Aldrich) in a glass tube (15 ml), and put the tube in a 75° C. water-bath, and performed a double boiling thereon to melt the olive wax for 30 minutes while vortexing the tube at 10 minute interval. Under the same conditions, 7.7 ml of purified water was put into a 75° C. water-bath and heated the same for 30 minutes. Next, 7.5 ml of purified water was poured into the tube containing the olive wax and the mixture was stirred well via vortexing. Then, […] (0.3%) of each of BMDA and derivatives thereof (FMJ-G0, FMJ-G4, FMJ-G1, FMJ-G2, FMJ-G3) as synthesized in Examples 1 and 3 were added to the mixture, followed by stirring. The reaction product was cooled in ice and prepared in the form of a cosmetic cream.\nIn order to induce atopic dermatitis using 5-week-old Balb/C mice, hair on the back of the mouse was removed therefrom, and after one day, a 0.5% solution in which DNCB (2,4-dinitrochlorobenzne) is mixed with acetone and olive oil (3:1) was prepared, and then was applied thereon for 3 consecutive days by 150 μL per each day. Thereafter, the solution of the same concentration was applied to the back area from which the hair was removed twice a week and this process continued for 2 weeks. Further, to alleviate atopic dermatitis induced in this way, the cosmetic cream containing each of BMDA (FMJ-G0) and the derivatives thereof (FMJ-G4, FMJ-G1, FMJ-G2, FMJ-G3) of the present disclosure as prepared above was applied to the back of rats with the induced atopic dermatitis for 2 weeks, and then, changes in skin inflammation were examined.\nThe experimental results of FIG. 10A and FIG. 10B was obtained as follows as in FIG. 9. The skin tissue was removed from the back of the mouse in the group, and was placed fixedly in 10% formaldehyde for 48 hours, and paraffin pieces were made, and the pieces were thinly sliced so as to have a thickness of 4 μm and was subjected to hematoxylin-esoin staining. Then, whether the damaged skin tissue was recovered by each of BMDA (FMJ-G0) and DMMA (FMJ-G4) was examined using an optical microscope equipped with a Leica application (Leica Microsystems, Switzerland).\nTo this end, the atopic dermatitis is induced in FIG. 9, and on 2 weeks since the treatment with BMDA (FMJ-G0) and DMMA (FMJ-G4), blood (500 ul) is collected from the hepatic veins of the rats of the above groups, and left at room temperature for 30 minutes. Then, serum was separated and prepared via centrifugation, and then, the IgE concentration related to the allergic reaction was measured through ELISA using the serum thus prepared.\nAnti-mouse IgE (Pharmingen, CA, USA) was diluted with PBS (pH 7.4) on a 96-well plate, 100 μL thereof was coated on each 96-well plate, and then left at 4° C. for 12 hours. The plate was washed with PBS containing 0.05% tween. Blocking was performed thereon for 1 hour with PBS containing 1% BSA, 5% sucrose, and 0.05% NaN3. Washing was performed thereon several times using washing buffer. Recombinant IgE and serum were added thereto, and reaction occurred at 37° C. for 2 hours, and each well was washed again, and biotinylated IgE (Pharmingen, CA, USA) was added thereto. Reaction occurred for 2 hours. After washing the well, avidin peroxidase was added thereto and reaction occurred at 37° C. for 30 minutes. Then, the well was washed and then, ABTS solution as a substrate was added thereto. Absorbance was measured at 405 nm using ELISA reader (Epoch2, Biotek, VT, USA).\nFIG. 11 show data obtained as follows. The atopic dermatitis was induced as described in FIG. 9, and on 2 weeks since the treatment with BMDA or DMMA (FMJ-G0/G4), a portion of the skin tissue of the rats in the groups were put in Trisol solution and the tissue was crushed in a sonicator. […]"}, "[3]": {"conditions": "cosmetic cream (Lidomax ointment 0.15%) applied for 2 weeks, FIG. 9B, 9D"}}, "data": [{"compound": "CCCCCCCCCCN(CC)Cc1ccccc1", "note": "[FMJ-G1, Benzyl-decyl-ethyl-amine]", "values": [{"measurement": "phosphorylation of JNK resulting from LPS", "setting": "[1]", "result": "inhibited"}, {"measurement": "phosphorylation of MK2 resulting from LPS", "setting": "[1]", "result": "inhibited"}, {"measurement": "phosphorylation of p38 MAP kinase resulting from LPS", "setting": "[1]", "result": "inhibited"}, {"measurement": "DNCB-induced atopic dermatitis (level of dermatitis)", "setting": "[2]", "result": "significantly alleviates"}]}, {"compound": "CCCCCCCCCCCCN(C)Cc1ccccc1", "note": "[FMJ-G2, benzyl-dodecyl-methyl-amine]", "values": [{"measurement": "phosphorylation of JNK resulting from LPS", "setting": "[1]", "result": "inhibited"}, {"measurement": "phosphorylation of MK2 resulting from LPS", "setting": "[1]", "result": "inhibited"}, {"measurement": "phosphorylation of p38 MAP kinase resulting from LPS", "setting": "[1]", "result": "inhibited"}, {"measurement": "DNCB-induced atopic dermatitis (level of dermatitis)", "setting": "[2]", "result": "did not prevent"}, {"measurement": "size of the (inguinal) lymph node", "setting": "[2]; [3]", "result": "increased"}, {"measurement": "size of the spleen", "setting": "[2]; [3]", "result": "increased"}]}]}
